The values that follow come from patent US4278467A, “Substitutive additives for isopropyl alcohol in fountain solution for lithographic offset printing” (priority 1979, dated 1981).

≈ marks a conversion by molar mass, not a printed value. Read-outs that look alike come from different tables or passages of the source.

Series [1] is described as follows: Solubility of selected materials in water, expressed in percent by weight at 20° C. It is filed as physicochemical.
A short description of series [2]: Solubility of water in the material, percent by weight at 20° C. It is filed as physicochemical. The following applies: water dissolved in the additive.
Series [3] in a line: Solubility of the material in heptane. Conditions: 20° C. It counts as physicochemical.
For series [4] the following is noted: 20° C.; cited from earlier work.
Series [5] in a line: Surface tension as measured by the duNouy tensiometer device. It is filed as physicochemical. The source says:
In continuous dampening systems, the dampening solution has a surface tension of from about 40 to 50 dynes/cm or less as measured by the duNouy tensiometer device. Isopropyl alcohol has an undiluted surface tension of about 21 dynes/cm and isopropyl alcohol at about 10 to 30 percent by volume in water has a surface tension of between 40 to 50 dynes/cm. […] The point where the optimum ink-water balance control is obtained depends on a combination of complicated factors not yet precisely known. These factors include the design and speed of the press, design of the dampening system, the nature and amount of concentrates that are used in the dampening solution, the nature of the form being printed and the experience of the operator. A typical lower limit of effective use of isopropyl alcohol in continuous flow dampening systems is between about 10 to 15 percent by volume. This corresponds to surface tension values in the range of about 40 to 50 dyne/cm.

The conditions of series [6]: cited from earlier work.

On to `CCCCCCOCCO` [n-hexyl Cellosolve, n-hexoxyethylene glycol], for which the “Sol. in Water” value in series [1] came to 1.0 percent by weight. In addition, the “Sol. of Water in (material)” value in series [2] was found to be 19 percent by weight. In series [3], the “Sol. in Heptane” value is recorded as “Complete”.
For the compound `CCCC(O)C(CC)CO` (stereo not drawn) [2-ethyl-1,3-hexanediol], the solubility in series [1] (water, read-out: Sol. in Water) was 42 mg/mL (≈ 287 mM). Moreover, in series [2], the “Sol. of Water in (material)” value is listed as 12 percent by weight.
As to `CC(C)O` [isopropyl alcohol], in series [4], the vapor pressure result is listed as “about 30 mm of Hg”. Moreover, the surface tension in series [5] (about 10 to 30 percent by volume in water) was 40 to 50 dynes/cm; in series [5] (lower limit of effective use, about 10 to 15 percent by volume), 40 to 50 dyne/cm; in series [5] (undiluted), “about 21 dynes/cm”. Besides, the heat of vaporization in series [6] (at its boiling point of 82° C.) was 164 callories/gm.
In the case of `O` [water], in series [4], the vapor pressure is ~18 mm of Hg. For the same compound, the heat of vaporization in series [6] (at 100° C.) was 540 calories/gm.
